This is an account of results in ChEMBL document CHEMBL3792354, “Design, synthesis and evaluation of novel ferulic acid-memoquin hybrids as potential multifunctional agents for the treatment of Alzheimer's disease” (Bioorg Med Chem Lett, 2016).

For series [1], the target named is Acetylcholinesterase (Electrophorus electricus, UniProt O42275). Briefly: Inhibition of Electrophorus electricus AChE pre-incubated for 15 mins before acetylthiocholine chloride substrate addition by Ellman assay.
Series [2] concerns the target Cholinesterase (Equus caballus) (UniProt P81908). Briefly: Inhibition of equine serum BuChE at 50 uM pre-incubated for 15 mins before butylthiocholine chloride substrate addition by Ellman assay. Background: DTNB colorimetry detects thiols as they appear.
A short description of series [3]: Antioxidant activity assessed as AAPH radical scavenging activity by measuring Trolox equivalent per microM of test compound measured every minute for 90 mins by ORAC-FL assay. It is filed as physicochemical. As to conditions: 1.5 h.
Series [4] addresses Amyloid-beta precursor protein (Homo sapiens) (UniProt P05067). Briefly: Inhibition of self-induced amyloid beta (1 to 42) aggregation (unknown origin) at 25 uM by Thioflavin T-based fluorometric assay.
The target is the same in series [5]. Briefly: Inhibition of self-induced amyloid beta (1 to 42) aggregation (unknown origin) at 50 uM by Thioflavin T-based fluorometric assay.
Series [6] shares this target. Briefly: Inhibition of self-induced amyloid beta (1 to 42) aggregation (unknown origin) at 10 uM by Thioflavin T-based fluorometric assay.
The target is the same in series [7]. Briefly: Induction of disaggregation of self-induced amyloid beta (1 to 42) fibril formation (unknown origin) at 25 uM incubated for 24 hrs by Thioflavin T-based fluorometric assay.
Series [8] has the same target. Briefly: Inhibition of self-induced amyloid beta (1 to 42) aggregation (unknown origin) by Thioflavin T-based fluorometric assay.
Series [9] in a line: Toxicity in human SH-SY5Y cells assessed as cell viability at 10 uM incubated for 24 hrs by MTT assay. As to conditions: read-out: Activity. In kind it is cell-based. For orientation: Tetrazolium dyes change colour on reduction, which living cells bring about.
Series [10] concerns SH-SY5Y. Briefly: Neuroprotective activity against hydrogen peroxide-induced cell injury in human SH-SY5Y cells assessed as cell viability incubated for 3 hrs after H2O2 exposure for 24 hrs by MTT assay. In kind it is functional, cell-based.
In series [11] the test system is SH-SY5Y. Briefly: Neuroprotective activity against hydrogen peroxide-induced cell injury in human SH-SY5Y cells assessed as cell viability at 10 uM incubated for 3 hrs after H2O2 exposure for 24 hrs by MTT assay. As to conditions: read-out: Activity. It is filed as functional.
In series [12] the test system is SH-SY5Y. Briefly: Neuroprotective activity against hydrogen peroxide-induced cell injury in human SH-SY5Y cells assessed as cell viability at 1 uM incubated for 3 hrs after H2O2 exposure for 24 hrs by MTT assay. In kind it is functional. The following applies: read-out: Activity.
Series [13] is described as follows: in vitro. The following applies: PAMPA. In general terms: The PAMPA barrier holds no transporters, so it reflects passive diffusion.
Description: Permeability of the compound at 100 ug/ml by PAMPA-BBB assay

Sequence of Acetylcholinesterase (O42275 whole entry): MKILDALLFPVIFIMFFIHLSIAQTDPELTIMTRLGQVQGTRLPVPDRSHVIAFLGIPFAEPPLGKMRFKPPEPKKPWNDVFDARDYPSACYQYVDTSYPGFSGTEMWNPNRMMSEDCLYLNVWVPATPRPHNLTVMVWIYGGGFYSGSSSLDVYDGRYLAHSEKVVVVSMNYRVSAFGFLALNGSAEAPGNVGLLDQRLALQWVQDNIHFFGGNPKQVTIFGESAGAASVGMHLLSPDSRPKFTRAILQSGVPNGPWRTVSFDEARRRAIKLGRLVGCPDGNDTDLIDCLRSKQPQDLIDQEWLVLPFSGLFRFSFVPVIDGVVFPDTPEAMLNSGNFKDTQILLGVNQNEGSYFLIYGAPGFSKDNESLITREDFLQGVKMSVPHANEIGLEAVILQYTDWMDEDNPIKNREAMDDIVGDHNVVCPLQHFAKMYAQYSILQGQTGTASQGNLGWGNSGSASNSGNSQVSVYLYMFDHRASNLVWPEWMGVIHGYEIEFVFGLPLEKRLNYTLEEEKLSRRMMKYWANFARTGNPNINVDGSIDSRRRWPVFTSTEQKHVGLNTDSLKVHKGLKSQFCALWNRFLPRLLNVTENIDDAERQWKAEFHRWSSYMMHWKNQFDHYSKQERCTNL
Sequence of Amyloid-beta precursor protein (Homo sapiens) (P05067 whole entry): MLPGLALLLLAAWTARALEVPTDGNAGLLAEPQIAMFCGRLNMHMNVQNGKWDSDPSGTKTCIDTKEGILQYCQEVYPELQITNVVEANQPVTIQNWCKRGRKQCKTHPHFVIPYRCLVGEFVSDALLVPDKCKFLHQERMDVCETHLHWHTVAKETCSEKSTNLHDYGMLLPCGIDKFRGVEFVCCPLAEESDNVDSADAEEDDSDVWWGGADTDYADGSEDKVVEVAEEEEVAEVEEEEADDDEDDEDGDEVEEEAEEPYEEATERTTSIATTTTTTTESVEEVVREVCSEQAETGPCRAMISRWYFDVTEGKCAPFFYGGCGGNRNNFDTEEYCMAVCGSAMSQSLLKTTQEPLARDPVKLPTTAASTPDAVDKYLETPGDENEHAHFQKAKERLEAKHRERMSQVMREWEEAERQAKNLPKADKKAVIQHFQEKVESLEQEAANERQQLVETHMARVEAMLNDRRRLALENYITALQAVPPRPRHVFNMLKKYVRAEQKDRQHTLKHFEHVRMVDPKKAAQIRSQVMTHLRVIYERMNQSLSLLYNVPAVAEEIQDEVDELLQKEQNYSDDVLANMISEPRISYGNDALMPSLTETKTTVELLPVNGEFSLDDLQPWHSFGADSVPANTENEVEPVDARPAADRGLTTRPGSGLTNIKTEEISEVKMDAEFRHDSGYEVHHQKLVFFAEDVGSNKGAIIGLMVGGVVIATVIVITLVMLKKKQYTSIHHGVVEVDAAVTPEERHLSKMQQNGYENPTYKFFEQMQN
Sequence of Cholinesterase (Equus caballus) (P81908 whole entry): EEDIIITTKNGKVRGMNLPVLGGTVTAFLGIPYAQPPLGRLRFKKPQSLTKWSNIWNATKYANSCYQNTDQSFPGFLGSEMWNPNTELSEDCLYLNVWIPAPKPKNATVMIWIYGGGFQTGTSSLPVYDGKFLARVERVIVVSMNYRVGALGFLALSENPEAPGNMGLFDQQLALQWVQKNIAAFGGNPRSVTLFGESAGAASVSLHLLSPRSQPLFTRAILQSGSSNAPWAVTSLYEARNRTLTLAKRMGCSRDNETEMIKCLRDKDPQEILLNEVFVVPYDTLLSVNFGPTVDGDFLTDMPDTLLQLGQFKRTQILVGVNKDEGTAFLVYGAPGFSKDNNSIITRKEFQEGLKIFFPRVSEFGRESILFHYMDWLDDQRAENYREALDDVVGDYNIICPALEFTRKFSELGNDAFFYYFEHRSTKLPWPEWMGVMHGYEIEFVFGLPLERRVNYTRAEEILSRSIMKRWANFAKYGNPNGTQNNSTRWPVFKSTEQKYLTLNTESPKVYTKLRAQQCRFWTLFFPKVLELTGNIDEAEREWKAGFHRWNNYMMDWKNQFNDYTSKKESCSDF

One may read the IC50 as the midpoint of a concentration-inhibition curve. High values mean weaker potency, low ones greater potency. The term inhibition denotes the drop in the measured response relative to a control, in per cent. The compound `COc1cc(/C=C/C(=O)NCCCCCCN(C)Cc2ccccc2)ccc1O` came in with an IC50 in [1] of 15.1 µM. For the same compound, the figures for the inhibition in [2] and in series [4] were less than 5% and 31.2%, respectively. The Activity in series [3] came to 1.2 equiv.

Regarding `COc1cc(/C=C/C(=O)NCCCCCCN(C)Cc2ccccc2OC)ccc1O`, 8.5 µM corresponded to half-maximal inhibition in series [1] (IC50). Besides, the inhibition turned out to be 27.6% in [2] and 36.6% in series [4]. Besides, in series [3], the Activity is reported as 1.3 equiv.

A word on the Papp: it is a coefficient for how fast a substance crosses the barrier. `CCN(CCCCCCNC(=O)/C=C/c1ccc(O)c(OC)c1)Cc1ccccc1OC` gave an IC50 in series [1] of 3.2 µM. Besides, the inhibition in [2] was 36.2%; in [4] it was 38.1%; in series [5], 49.3%; in series [6], 26.8%; in series [8], “Dose-dependent effect”. Besides, the Activity was 1.2 equiv in series [3], 45.5% in series [7] and “Dose-dependent effect” in [10]. Moreover, in [9], the viability at 24 h, 10 µM worked out at 98.3%. Besides, the viability at 10 µM in series [11] is 88.3%. The viability at 1 µM in series [12] was 68.6%. This compound displayed a Papp at 100 ug/ml in [13] of 5.53 ×10⁻⁶ cm/s.

With `CCN(CCCCNC(=O)/C=C/c1ccc(O)c(OC)c1)Cc1ccccc1`, in series [1], inhibition was half-maximal at 16.5 µM (IC50). The inhibition in [2] is less than 5%; in [4], 33.8%. The Activity in series [3] was 1.1 equiv.

Consider `COc1cc(/C=C/C(=O)NCCCCN(C)Cc2ccccc2OC)ccc1O`, for which 18 µM corresponded to half-maximal inhibition in [1] (IC50). The inhibition in series [2] was 34.6%; in series [4], 32.5%. For the same compound, in series [3], the Activity amounted to 1.2 equiv.

Regarding `CCN(CCCCNC(=O)/C=C/c1ccc(O)c(OC)c1)Cc1ccccc1OC`, the IC50 in [1] was found to be 8.6 µM. Also, the inhibition was less than 5% in series [2] and 38.3% in series [4]. In series [3], the Activity is 1.3 equiv.

In the case of `COc1cc(/C=C/C(=O)CC(=O)/C=C/c2ccc(O)c(OC)c2)ccc1O`, the Activity in series [7] turned out to be 57.6%.

`COc1cc(/C=C/C(=O)NCCCN(C)Cc2ccccc2)ccc1O` came in with an IC50 in series [1] of 34.7 µM. Also, the figures for the inhibition in series [2] and in series [4] were less than 5% and 39.1%, respectively. Also, the Activity in series [3] came out at 1.2 equiv.

In series [1], `CCN(CCCCCCNC(=O)/C=C/c1ccc(O)c(OC)c1)Cc1ccccc1` came in with an IC50 of 8.2 µM. Also, the inhibition was 17.2% in series [2] and 37.4% in [4]. Besides, the Activity in [3] was 1.1 equiv.

In series [13], `CC(=O)[C@H]1CC[C@H]2[C@@H]3CCC4=CC(=O)CC[C@]4(C)[C@H]3CC[C@]12C` [PROGESTERONE] displayed a Papp at 100 ug/ml of 15.9 ×10⁻⁶ cm/s.

In series [13], `CN1C(C(=O)Nc2ccccn2)=C(O)c2ccccc2S1(=O)=O` [PIROXICAM] gave a Papp at 100 ug/ml of 0.63 ×10⁻⁶ cm/s.

`CCN(CCCNC(=O)/C=C/c1ccc(O)c(OC)c1)Cc1ccccc1OC` gave an IC50 in series [1] of 15.9 µM. In addition, the figures for the inhibition in series [2] and in series [4] were 31.4% and 35.2%, respectively. For the same compound, in series [3], the Activity is reported as 1.1 equiv.

`COc1cc(/C=C/C(=O)NCCCCN(C)Cc2ccccc2)ccc1O`: the IC50 in [1] amounted to 29.6 µM. In addition, the inhibition in series [2] was less than 5%; in [4], 31.6%. Besides, in series [3], the Activity is given as 1.3 equiv.

Regarding `CCn1cc(C(=O)O)c(=O)c2cc(F)c(N3CCNC(C)C3)c(F)c21` (stereo not drawn) [LOMEFLOXACIN], in series [13], the Papp at 100 ug/ml was 0.52 ×10⁻⁶ cm/s.

In series [1], `COc1cc(/C=C/C(=O)O)ccc1O` [FERULATE] yielded an IC50 greater than 100 µM. Moreover, the values for the inhibition in series [2] and in series [4] were less than 5% and 28.3%, respectively. For the same compound, the Activity in series [3] is listed as 1.1 equiv.

In series [1], `CCN(CCCNC(=O)/C=C/c1ccc(O)c(OC)c1)Cc1ccccc1` registered an IC50 of 31.4 µM. The inhibition was less than 5% in [2] and 33.3% in series [4]. Further, the Activity in series [3] is 0.9 equiv.

The compound `COc1cc(/C=C/C(=O)NCCCN(C)Cc2ccccc2OC)ccc1O` displayed an IC50 in series [1] of 25.1 µM. For the same compound, the inhibition worked out at 15.8% in [2] and 30.8% in [4]. The Activity in [3] is given as 1.3 equiv.

As to `CCN(CCCCCCNC1=CC(=O)C(NCCCCCCN(CC)Cc2ccccc2OC)=CC1=O)Cc1ccccc1OC` [MEMOQUIN], the IC50 in series [1] is 0.0067 µM. Also, the inhibition was 5.8% in series [2] and 72.7% in series [4].
